Results: patent publication US20240148821A1, “PHARMACEUTICAL USE OF CYCLIC PEPTIDE COMPOUND” (CHUGAI SEIYAKU KABUSHIKI KAISHA, priority 2021, published 2024)
Bridge positions count the residues as written; N and C are the ends. Square brackets hold non-standard residues; d marks the D form. Peptide text beside a SMILES is read from it. * marks the point of attachment. hPhe(3-Cl-4-CF3) = N[C@@H](CCc1ccc(C(F)(F)F)c(Cl)c1)C(=O)O; NMePhe(4-Me) = CN[C@@H](Cc1ccc(C)cc1)C(=O)O; NMePhe(4-F) = CN[C@@H](Cc1ccc(F)cc1)C(=O)O; NMeGly(cPent) = CN[C@H](C(=O)O)C1CCCC1; NMe3Pal = CN[C@@H](Cc1cccnc1)C(=O)O; NMeCha = CN[C@@H](CC1CCCCC1)C(=O)O; NMeAhp(2) = CCCCC[C@H](NC)C(=O)O; NMeChg = CN[C@H](C(=O)O)C1CCCCC1; NMeF = CN[C@@H](Cc1ccccc1)C(=O)O; NMeD = CN[C@@H](CC(=O)O)C(=O)O; NMeL = CN[C@@H](CC(C)C)C(=O)O; Ahp(2) = CCCCC[C@H](N)C(=O)O; Cba = N[C@@H](CC1CCC1)C(=O)O; NMeV = CN[C@H](C(=O)O)C(C)C; d(β3hA) = C[C@@H](N)CC(=O)O; NMeAbu = CC[C@H](NC)C(=O)O; Morpholide = C1CN(*)CCO1; NMeA = CN[C@@H](C)C(=O)O; Nle = CCCC[C@H](N)C(=O)O; Piperidide = C1CCN(*)CC1; Pyrrolidide = C1CCN(*)C1; dNMeA = CN[C@H](C)C(=O)O; Ac5c = NC1(C(=O)O)CCCC1; Aze = O=C(O)[C@@H]1CCN1; Sar = CNCC(=O)O; Propyl = CCC*

system: Human pancreatic cancer cell line AsPC-1 (G12D mutation Kras); assay: AsPC-1 cell growth inhibition (AsPC-1 CGI); format: cell-based; settings: read-out: AsPC-1 cell growth inhibition, 50% growth inhibitory concentration (IC50 value); 96 hours, CellTiter-Glo, values classified in ranges
Experimental: Test compounds were serially dilated with dimethyl sulfoxide, and 200 nL was then dispensed to a U-bottom 96-well plate using Labcyte Echo. […] The cell suspension was dispensed to a. plate containing a test compound at 100 μL per well and incubated at 37° C. in a 5% carbon dioxide gas incubator. 96 hours later, 80 μL of CellTiter-Glo (Promega) was added to each well and fluorescence was measured.

`CC[C@H](C)[C@@H]1NC(=O)[C@H](C)N(C)C(=O)C[C@@H](C)NC(=O)[C@H](C2CCCCC2)N(C)C(=O)C2(CCCC2)NC(=O)[C@@H]2CCCN2C(=O)[C@H](CCc2ccc(C(F)(F)F)c(Cl)c2)NC(=O)CN(C)C(=O)[C@H](CC2CCCCC2)N(C)C(=O)CN(C)C(=O)CN(C)C1=O` [Compound 1688] (cyclo([Ac5c][NMeChg][d(β3hA)][NMeA]I[Sar][Sar][NMeCha][Sar][hPhe(3-Cl-4-CF3)]P)) and `CC[C@H](C)[C@@H]1NC(=O)[C@H](CC(C)C)N(C)C(=O)C[C@@H](C(=O)N2CCCCC2)N(C)C(=O)[C@H](C2CCCCC2)N(C)C(=O)C2(CCCC2)NC(=O)[C@@H]2CCCN2C(=O)[C@H](CCc2ccc(C(F)(F)F)c(Cl)c2)NC(=O)CN(C)C(=O)[C@H](CC)N(C)C(=O)CN(C)C(=O)CN(C)C1=O` [Compound 1743] ([NMeL]I[Sar][Sar][NMeAbu][Sar][hPhe(3-Cl-4-CF3)]P[Ac5c][NMeChg][NMeD]-Piperidide; lactam N-11) cannot be ordered by IC50: over 500 nM for the first, over 500 nM for the second.

`CCCCC[C@@H]1NC(=O)[C@H](CC(C)C)N(C)C(=O)C[C@@H](C(=O)N2CCCCC2)N(C)C(=O)[C@H](C2CCCCC2)N(C)C(=O)C2(CCCC2)NC(=O)[C@@H]2CCCN2C(=O)[C@H](CCc2ccc(C(F)(F)F)c(Cl)c2)NC(=O)CN(C)C(=O)[C@H](CC2CCCCC2)N(C)C(=O)CN(C)C(=O)CN(C)C1=O` [Compound 1692] ([NMeL][Ahp(2)][Sar][Sar][NMeCha][Sar][hPhe(3-Cl-4-CF3)]P[Ac5c][NMeChg][NMeD]-Piperidide; lactam N-11) and `CCCC[C@@H]1NC(=O)[C@H](CC(C)C)N(C)C(=O)C[C@@H](C(=O)N2CCCCC2)N(C)C(=O)[C@H](C2CCCCC2)N(C)C(=O)C2(CCCC2)NC(=O)[C@@H]2CCCN2C(=O)[C@H](CCc2ccc(C(F)(F)F)c(Cl)c2)NC(=O)CN(C)C(=O)[C@H](CC2CCCCC2)N(C)C(=O)CN(C)C(=O)CN(C)C1=O` [Compound 1723] ([NMeL][Nle][Sar][Sar][NMeCha][Sar][hPhe(3-Cl-4-CF3)]P[Ac5c][NMeChg][NMeD]-Piperidide; lactam N-11) cannot be ordered by IC50: over 500 nM for the first, over 500 nM for the second.

`CC[C@H](C)[C@@H]1NC(=O)[C@H](C)N(C)C(=O)C[C@@H](C(=O)N2CCCCC2)N(C)C(=O)[C@H](C(C)C)N(C)C(=O)C2(CCCC2)NC(=O)[C@@H]2CCCN2C(=O)[C@H](CCc2ccc(C(F)(F)F)c(Cl)c2)NC(=O)CN(C)C(=O)[C@H](Cc2ccc(F)cc2)N(C)C(=O)[C@@H]2CCCN2C(=O)CN(C)C1=O` [Compound 1698] ([NMeA]I[Sar]P[NMePhe(4-F)][Sar][hPhe(3-Cl-4-CF3)]P[Ac5c][NMeV][NMeD]-Piperidide; lactam N-11) and `CC[C@H](C)[C@@H]1NC(=O)[C@H](C)N(C)C(=O)C[C@@H](C(=O)N2CCCCC2)N(C)C(=O)[C@H](C(C)C)N(C)C(=O)C2(CCCC2)NC(=O)[C@@H]2CCCN2C(=O)[C@H](CCc2ccc(C(F)(F)F)c(Cl)c2)NC(=O)CN(C)C(=O)[C@H](Cc2ccccc2)N(C)C(=O)[C@@H]2CCCN2C(=O)CN(C)C1=O` [Compound 1753] ([NMeA]I[Sar]P[NMeF][Sar][hPhe(3-Cl-4-CF3)]P[Ac5c][NMeV][NMeD]-Piperidide; lactam N-11) cannot be ordered by IC50: over 500 nM for the first, over 500 nM for the second.

`CC[C@H](C)[C@@H]1NC(=O)[C@H](C)N(C)C(=O)C[C@@H](C(=O)N2CCOCC2)N(C)C(=O)[C@H](C2CCCCC2)N(C)C(=O)C2(CCCC2)NC(=O)[C@H](Cc2cccnc2)N(C)C(=O)[C@H](CCc2ccc(C(F)(F)F)c(Cl)c2)NC(=O)CN(C)C(=O)[C@H](CC2CCCCC2)N(C)C(=O)[C@@H]2CCN2C(=O)CN(C)C1=O` [Compound 1703] ([NMeA]I[Sar][Aze][NMeCha][Sar][hPhe(3-Cl-4-CF3)][NMe3Pal][Ac5c][NMeChg][NMeD]-Morpholide; lactam N-11) and `CC[C@H](C)[C@@H]1NC(=O)[C@H](C)N(C)C(=O)C[C@@H](C(=O)N2CCCC2)N(C)C(=O)[C@H](C(C)C)N(C)C(=O)C2(CCCC2)NC(=O)[C@@H]2CCCN2C(=O)[C@H](CCc2ccc(C(F)(F)F)c(Cl)c2)NC(=O)[C@@H](C)N(C)C(=O)[C@H](CC2CCCCC2)N(C)C(=O)[C@@H]2CCCN2C(=O)CN(C)C1=O` [Compound 1715] ([NMeA]I[Sar]P[NMeCha][dNMeA][hPhe(3-Cl-4-CF3)]P[Ac5c][NMeV][NMeD]-Pyrrolidide; lactam N-11) cannot be ordered by IC50: over 500 nM for the first, over 500 nM for the second.

`CCCCC[C@H]1C(=O)N(C)[C@H](C(=O)N2CCCCC2)CC(=O)N(C)[C@@H](CC(C)C)C(=O)N[C@@H]([C@@H](C)CC)C(=O)N(C)CC(=O)N(C)CC(=O)N(C)[C@@H](CC2CCCCC2)C(=O)N(C)CC(=O)N[C@@H](CCc2ccc(C(F)(F)F)c(Cl)c2)C(=O)N2CCC[C@H]2C(=O)NC2(CCCC2)C(=O)N1C` [Compound 1719] ([NMeL]I[Sar][Sar][NMeCha][Sar][hPhe(3-Cl-4-CF3)]P[Ac5c][NMeAhp(2)][NMeD]-Piperidide; lactam N-11) and `CC[C@H](C)[C@@H]1NC(=O)[C@H](CC(C)C)N(C)C(=O)C[C@@H](C(=O)N2CCCCC2)N(C)C(=O)[C@H](CC)N(C)C(=O)C2(CCCC2)NC(=O)[C@@H]2CCCN2C(=O)[C@H](CCc2ccc(C(F)(F)F)c(Cl)c2)NC(=O)CN(C)C(=O)[C@H](CC2CCCCC2)N(C)C(=O)CN(C)C(=O)CN(C)C1=O` [Compound 1741] ([NMeL]I[Sar][Sar][NMeCha][Sar][hPhe(3-Cl-4-CF3)]P[Ac5c][NMeAbu][NMeD]-Piperidide; lactam N-11) cannot be ordered by IC50: over 500 nM for the first, over 500 nM for the second.

`CC[C@H](C)[C@@H]1NC(=O)[C@H](C)N(C)C(=O)C[C@@H](C(=O)N2CCCCC2)N(C)C(=O)[C@H](C(C)C)N(C)C(=O)C2(CCCC2)NC(=O)[C@@H]2CCCN2C(=O)[C@H](CCc2ccc(C(F)(F)F)c(Cl)c2)NC(=O)[C@H]2CCCN2C(=O)[C@H](Cc2ccc(F)cc2)N(C)C(=O)[C@@H]2CCCN2C(=O)CN(C)C1=O` [Compound 1725] ([NMeA]I[Sar]P[NMePhe(4-F)][dP][hPhe(3-Cl-4-CF3)]P[Ac5c][NMeV][NMeD]-Piperidide; lactam N-11) and `CC[C@H](C)[C@@H]1NC(=O)[C@H](C)N(C)C(=O)C[C@@H](C(=O)N2CCCCC2)N(C)C(=O)[C@H](C(C)C)N(C)C(=O)C2(CCCC2)NC(=O)[C@@H]2CCCN2C(=O)[C@H](CCc2ccc(C(F)(F)F)c(Cl)c2)NC(=O)[C@@H](C)N(C)C(=O)[C@H](Cc2ccc(F)cc2)N(C)C(=O)CN(C)C(=O)CN(C)C1=O` [Compound 1755] ([NMeA]I[Sar][Sar][NMePhe(4-F)][dNMeA][hPhe(3-Cl-4-CF3)]P[Ac5c][NMeV][NMeD]-Piperidide; lactam N-11) cannot be ordered by IC50: over 500 nM for the first, over 500 nM for the second.

`CC[C@H](C)[C@@H]1NC(=O)[C@H](C)N(C)C(=O)C[C@@H](C)NC(=O)[C@H](C(C)C)N(C)C(=O)C2(CCCC2)NC(=O)[C@@H]2CCCN2C(=O)[C@H](CCc2ccc(C(F)(F)F)c(Cl)c2)NC(=O)[C@H]2CCCN2C(=O)[C@H](Cc2ccccc2)N(C)C(=O)[C@@H]2CCCN2C(=O)CN(C)C1=O` [Compound 1730] (cyclo([Ac5c][NMeV][d(β3hA)][NMeA]I[Sar]P[NMeF][dP][hPhe(3-Cl-4-CF3)]P)) and `CC[C@H](C)[C@@H]1NC(=O)[C@H](C)N(C)C(=O)C[C@@H](C)NC(=O)[C@H](C(C)C)N(C)C(=O)C2(CCCC2)NC(=O)[C@@H]2CCCN2C(=O)[C@H](CCc2ccc(C(F)(F)F)c(Cl)c2)NC(=O)CN(C)C(=O)[C@H](Cc2ccc(F)cc2)N(C)C(=O)[C@@H]2CCCN2C(=O)CN(C)C1=O` [Compound 1732] (cyclo([Ac5c][NMeV][d(β3hA)][NMeA]I[Sar]P[NMePhe(4-F)][Sar][hPhe(3-Cl-4-CF3)]P)) cannot be ordered by IC50: over 500 nM for the first, over 500 nM for the second.

`CCCOC[C@@H]1NC(=O)[C@H](CC(C)C)N(C)C(=O)C[C@@H](C(=O)N2CCCCC2)N(C)C(=O)[C@H](C2CCCCC2)N(C)C(=O)C2(CCCC2)NC(=O)[C@@H]2CCCN2C(=O)[C@H](CCc2ccc(C(F)(F)F)c(Cl)c2)NC(=O)CN(C)C(=O)[C@H](CC2CCCCC2)N(C)C(=O)CN(C)C(=O)CN(C)C1=O` [Compound 1736] ([NMeL]S(Propyl)[Sar][Sar][NMeCha][Sar][hPhe(3-Cl-4-CF3)]P[Ac5c][NMeChg][NMeD]-Piperidide; lactam N-11) and `CC(C)C[C@H]1C(=O)N[C@@H](CC2CCC2)C(=O)N(C)CC(=O)N(C)CC(=O)N(C)[C@@H](CC2CCCCC2)C(=O)N(C)CC(=O)N[C@@H](CCc2ccc(C(F)(F)F)c(Cl)c2)C(=O)N2CCC[C@H]2C(=O)NC2(CCCC2)C(=O)N(C)[C@@H](C2CCCCC2)C(=O)N(C)[C@H](C(=O)N2CCCCC2)CC(=O)N1C` [Compound 1759] ([NMeL][Cba][Sar][Sar][NMeCha][Sar][hPhe(3-Cl-4-CF3)]P[Ac5c][NMeChg][NMeD]-Piperidide; lactam N-11) cannot be ordered by IC50: over 500 nM for the first, over 500 nM for the second.

`CC(C)C[C@@H]1NC(=O)[C@H](CC(C)C)N(C)C(=O)C[C@@H](C(=O)N2CCCCC2)N(C)C(=O)[C@H](C(C)C)N(C)C(=O)C2(CCCC2)NC(=O)[C@@H]2CCCN2C(=O)[C@H](CCc2ccc(C(F)(F)F)c(Cl)c2)NC(=O)CN(C)C(=O)[C@H](CC2CCCCC2)N(C)C(=O)[C@@H]2CCN2C(=O)[C@H](C)N(C)C1=O` [Compound 1754] ([NMeL]L[NMeA][Aze][NMeCha][Sar][hPhe(3-Cl-4-CF3)]P[Ac5c][NMeV][NMeD]-Piperidide; lactam N-11) and `CC(C)C[C@H]1C(=O)N[C@@H](CO)C(=O)N(C)[C@@H](C)C(=O)N2CC[C@H]2C(=O)N(C)[C@@H](CC2CCCCC2)C(=O)N(C)CC(=O)N[C@@H](CCc2ccc(C(F)(F)F)c(Cl)c2)C(=O)N2CCC[C@H]2C(=O)NC2(CCCC2)C(=O)N(C)[C@@H](C(C)C)C(=O)N(C)[C@H](C(=O)N2CCCCC2)CC(=O)N1C` [Compound 1768] ([NMeL]S[NMeA][Aze][NMeCha][Sar][hPhe(3-Cl-4-CF3)]P[Ac5c][NMeV][NMeD]-Piperidide; lactam N-11) cannot be ordered by IC50: over 500 nM for the first, over 500 nM for the second.

`CC[C@H](C)[C@@H]1NC(=O)[C@H](CC(C)C)N(C)C(=O)C[C@@H](C(=O)N(C)C)N(C)C(=O)[C@H](C2CCCC2)N(C)C(=O)C2(CCCC2)NC(=O)[C@@H]2CCCN2C(=O)[C@H](CCc2ccc(C(F)(F)F)c(Cl)c2)NC(=O)CN(C)C(=O)[C@H](Cc2ccc(C)cc2)N(C)C(=O)[C@@H]2CCN2C(=O)[C@H](C)N(C)C1=O` [Compound 1756] ([NMeL]I[NMeA][Aze][NMePhe(4-Me)][Sar][hPhe(3-Cl-4-CF3)]P[Ac5c][NMeGly(cPent)][NMeD]-NMe2; lactam N-11) was tested, and the IC50 was at most 20 nM.
